Results from patent US20060270648A1, “USE OF POLYAMINES WITH ANTIBIOTICS” (priority 2005, published 2006).
Read-outs that look alike come from different tables or passages of the source.

Experiments:
[1] = tested on: MRSA Staphylococcus aureus 700699; assay: MIC of antibiotics against MRSA Staphylococcus aureus 700699 with or without spermine; type: cell-based; conditions: for MIC: Staphylococcus aureus, MRSA, read-out: MICs in the absence or presence of spermine: No add; for MICs in the absence or presence of spermine: Spermine (1 mM): with 1 mM spermine
[2] = tested on: methicillin resistant Staphylococcus aureus (MRSA) Mu50; assay: MIC of antibiotics against MRSA Mu50 with or without spermine; type: cell-based; conditions: for MIC: Staphylococcus aureus, MRSA, read-out: MICs in the presence or absence of spermine (1 mM): No add; for MICs in the presence or absence of spermine (1 mM): Spermine: with 1 mM spermine

**Q.** Which MIC ([1]; no spermine) does the source give for `CO/N=C(\C(=O)N[C@@H]1C(=O)N2C(C(=O)O)=C(CSc3nc(=O)c(=O)[nH]n3C)CS[C@H]12)c1csc(N)n1` [Ceftriaxone] here?
**A.** > 512 µg/mL

**Q.** What about the “MICs in the absence or presence of spermine: Spermine (1 mM)” value (“MICs in the absence or presence … (1 mM)” below) [1] of the same compound?
**A.** 16 µg/mL

**Q.** And the MIC ([2]; no spermine)?
**A.** > 512 µg/mL

**Q.** And the “MICs in the presence or absence of spermine (1 mM): Spermine” value (“MICs … (1 mM): Spermine” below) [2]?
**A.** 16 µg/mL

**Q.** What does the source list for `C[C@H]1[C@H](NC(=O)/C(=N\OC(C)(C)C(=O)O)c2csc(N)n2)C(=O)N1S(=O)(=O)O` [Aztreonam]?
**A.** MIC ([1]; no spermine): > 1020 µg/mL; MICs in the absence or presence of spermine: Spermine (1 mM) [1]: >256 µg/mL

**Q.** `CO/N=C(\C(=O)N[C@@H]1C(=O)N2C(C(=O)O)=C(COC(C)=O)CS[C@H]12)c1csc(N)n1` [Cefotaxime] was tested. Which MIC ([1]; no spermine) did it give?
**A.** 128 µg/mL

**Q.** What about the “MICs in the absence or presence … (1 mM)” value [1] of the same compound?
**A.** 1 µg/mL

**Q.** And the MIC ([2]; no spermine)?
**A.** 128 µg/mL

**Q.** And the “MICs … (1 mM): Spermine” value [2]?
**A.** 1 µg/mL

**Q.** Which MIC [1] does the source give for `CN[C@H](CC(C)C)C(=O)N[C@H]1C(=O)N[C@@H](CC(N)=O)C(=O)N[C@H]2C(=O)N[C@H]3C(=O)N[C@H](C(=O)N[C@H](C(=O)O)c4cc(O)cc(O)c4-c4cc3ccc4O)[C@H](O)c3ccc(c(Cl)c3)Oc3cc2cc(c3O[C@@H]2O[C@H](CO)[C@@H](O)[C@H](O)[C@H]2O[C@H]2C[C@](C)(N)[C@H](O)[C@H](C)O2)Oc2ccc(cc2Cl)[C@H]1O` [Vancomycin] here?
**A.** 4 µg/mL

**Q.** And the “MICs in the absence or presence … (1 mM)” value [1]?
**A.** 4 µg/mL

**Q.** `CCn1cc(C(=O)O)c(=O)c2cc(F)c(N3CCNCC3)cc21` [Norfioxacin] was tested. Which “MICs in the presence or absence of spermine (1 mM): No add” value ([2]; no spermine) did it give?
**A.** 128 µg/mL

**Q.** And the “MICs … (1 mM): Spermine” value [2]?
**A.** 64 µg/mL

**Q.** Which MIC ([1]; no spermine) does the source give for `CO[C@@]1(NC(=O)C(C(=O)O)c2ccc(O)cc2)C(=O)N2C(C(=O)O)=C(CSc3nnnn3C)CO[C@@H]21` (some centres unmarked) [Moxalactam] here?
**A.** > 512 µg/mL

**Q.** What about the “MICs in the absence or presence … (1 mM)” value [1] of the same compound?
**A.** >32 µg/mL

**Q.** With `Cc1onc(-c2ccccc2Cl)c1C(=O)N[C@@H]1C(=O)N2[C@@H]1SC(C)(C)[C@@H]2C(=O)O` [Cloxacillin] as the compound, how does the MIC ([1]; no spermine) read?
**A.** > 256 µg/mL

**Q.** What about the “MICs in the absence or presence … (1 mM)” value [1] of the same compound?
**A.** 2 µg/mL

**Q.** What about the MIC ([2]; no spermine) of the same compound?
**A.** ≥ 256 µg/mL

**Q.** What about the “MICs … (1 mM): Spermine” value [2] of the same compound?
**A.** 1 µg/mL

**Q.** With `O=C(Cc1cccs1)N[C@@H]1C(=O)N2C(C(=O)[O-])=C(C[n+]3ccccc3)CS[C@H]12` [Cephaloridine] as the compound, how does the MIC ([1]; no spermine) read?
**A.** 16 µg/mL

**Q.** And the “MICs in the absence or presence … (1 mM)” value [1]?
**A.** 0.25 µg/mL

**Q.** What about the MIC ([2]; no spermine) of the same compound?
**A.** 16 µg/mL

**Q.** And the “MICs … (1 mM): Spermine” value [2]?
**A.** 0.25 µg/mL

**Q.** `CC(=O)OCC1=C(C(=O)O)N2C(=O)[C@@H](NC(=O)CCC[C@@H](N)C(=O)O)[C@H]2SC1` [Cephalosporin C] was tested. Which “MICs in the absence or presence of spermine: No add” value ([1]; no spermine) did it give?
**A.** >512 µg/mL

**Q.** What about the “MICs in the absence or presence … (1 mM)” value [1] of the same compound?
**A.** >128 µg/mL

**Q.** Which MIC ([1]; no spermine) does the source give for `CC1(C)S[C@@H]2[C@H](NC(=O)[C@H](N)c3ccc(O)cc3)C(=O)N2[C@H]1C(=O)O` [Amoxicillin] here?
**A.** 16 µg/mL

**Q.** What about the “MICs in the absence or presence … (1 mM)” value [1] of the same compound?
**A.** 0.5 µg/mL

**Q.** And the MIC ([2]; no spermine)?
**A.** 16 µg/mL

**Q.** And the “MICs … (1 mM): Spermine” value [2]?
**A.** 0.5 µg/mL

**Q.** `CC(C)(O/N=C(\C(=O)N[C@@H]1C(=O)N2C(C(=O)[O-])=C(C[n+]3ccccc3)CS[C@H]12)c1csc(N)n1)C(=O)O` [Ceftazidime] was tested. Which MIC ([1]; no spermine) did it give?
**A.** 256 µg/mL

**Q.** What about the “MICs in the absence or presence … (1 mM)” value [1] of the same compound?
**A.** 4 µg/mL

**Q.** And the MIC ([2]; no spermine)?
**A.** 256 µg/mL

**Q.** And the “MICs … (1 mM): Spermine” value [2]?
**A.** 4 µg/mL

**Q.** Which MIC ([1]; no spermine) does the source give for `CCN1CCN(C(=O)N[C@@H](C(=O)N[C@@H]2C(=O)N3C(C(=O)O)=C(CSc4nnnn4C)CS[C@H]23)c2ccc(O)cc2)C(=O)C1=O` [Cefoperazone] here?
**A.** > 512 µg/mL

**Q.** What about the “MICs in the absence or presence … (1 mM)” value [1] of the same compound?
**A.** >4 µg/mL

**Q.** What about the MIC ([2]; no spermine) of the same compound?
**A.** > 512 µg/mL

**Q.** What about the “MICs … (1 mM): Spermine” value [2] of the same compound?
**A.** 16 µg/mL

**Q.** How did the MIC ([1]; no spermine) turn out when `CC(=O)OCC1=C(C(=O)O)N2C(=O)[C@@H](NC(=O)Cc3cccs3)[C@H]2SC1` [Cephalothin] was run?
**A.** 32 µg/mL

**Q.** And the “MICs in the absence or presence … (1 mM)” value [1]?
**A.** 4 µg/mL

**Q.** And the MIC ([2]; no spermine)?
**A.** 32 µg/mL

**Q.** And the “MICs … (1 mM): Spermine” value [2]?
**A.** 4 µg/mL

**Q.** Which results are given for Gentamicin?
**A.** MICs in the absence or presence of spermine: No add ([1]; no spermine): 256 µg/mL; MICs in the absence or presence of spermine: Spermine (1 mM) [1]: 256 µg/mL
